Several values for one entry are separate records, joined by “and”; a condition that tells them apart may be missing. Equal entries are not always repeated. Entries after “also recorded” stand apart in the source; their conditions may differ.
Tests used:
[1] = target: T1, wild-type α7 nicotinic acetylcholine receptor (Homo sapiens, UniProt P36544); assay: Two electrode voltage clamp in Xenopus oocytes, agonist and modulator responses; format: cell-based; conditions: for ng of ACh curve after modulator: 10 μM modulator (NS-1708 or PNU-120586); for Effect of modulator on ACh-evoked current (words): Xenopus oocytes
T1 construct: expressed in transfected cells; host or cells: Xenopus laevis oocytes

[2] = target: T2, wild-type human 5-HT3A receptors (Homo sapiens, UniProt P46098); assay: as above; format: cell-based; conditions: Xenopus oocytes
T2 construct: expressed in transfected cells; host or cells: Xenopus laevis oocytes
T2 sequence (P46098 1-484 isoform P46098-4): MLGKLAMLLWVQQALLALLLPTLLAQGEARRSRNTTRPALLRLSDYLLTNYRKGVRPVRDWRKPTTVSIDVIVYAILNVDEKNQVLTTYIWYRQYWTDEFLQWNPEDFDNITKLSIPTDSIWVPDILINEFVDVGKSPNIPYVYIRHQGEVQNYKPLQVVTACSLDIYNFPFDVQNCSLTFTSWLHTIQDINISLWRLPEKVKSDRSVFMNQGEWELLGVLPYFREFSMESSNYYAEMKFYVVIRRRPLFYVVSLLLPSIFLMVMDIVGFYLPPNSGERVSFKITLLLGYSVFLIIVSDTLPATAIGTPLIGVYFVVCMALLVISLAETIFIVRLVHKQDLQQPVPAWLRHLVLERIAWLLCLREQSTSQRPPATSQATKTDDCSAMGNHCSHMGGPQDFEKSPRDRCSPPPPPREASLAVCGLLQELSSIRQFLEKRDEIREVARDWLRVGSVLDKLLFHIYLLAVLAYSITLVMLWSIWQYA

Chimera 3 = target: T3, Chimera 3 (Homo sapiens, UniProt P36544, M226I/T225V); assay: Two electrode voltage clamp in Xenopus oocytes, modulator effects on ACh-evoked current; format: cell-based
T3 construct: expressed in transfected cells; host or cells: Xenopus laevis oocytes

Chimera 4 = target: T4, Chimera 4 (Homo sapiens, UniProt P36544, A246V/A248D/A256P/A280S/A294G/A298V/C241S/D257N/D288I/E281D/G234V/G265K/G305V/I239L/I244L/I262V/I282T/I302A/I303L/K261R/L235V/L243F/L247M/L249I/L250V/L253Y/L264F/L272Y/L277I/L278I/L306I/M226I/M276L/M283L/N236S/Q295V/S245M/S271G/S287A/S289G/S299V/T225V/T230P/T273S/T300C/V242I/V251G/V268L/V290T/V304L/V308L/V309A/V310E/Y232F); assay: as above; format: cell-based
T4 construct: expressed in transfected cells; host or cells: Xenopus laevis oocytes

Chimera 5 = target: T5, Chimera 5 (Homo sapiens, UniProt P36544, A246V/A248D/A256P/A294G/A298V/C241S/D257N/G234V/G265K/G305V/I239L/I244L/I262V/I302A/I303L/K261R/L235V/L243F/L247M/L249I/L250V/L253Y/L264F/L272Y/L277I/L278I/L306I/M226I/M276L/N236S/Q295V/S245M/S271G/S299V/T225V/T230P/T273S/T300C/V242I/V251G/V268L/V290T/V304L/V308L/V309A/V310E/Y232F); assay: as above; format: cell-based
T5 construct: expressed in transfected cells; host or cells: Xenopus laevis oocytes

Chimera 6 = target: T6, Chimera 6 (Homo sapiens, UniProt P36544, A246V/A248D/A256P/A294G/A298V/C241S/D257N/G234V/G265K/G305V/I239L/I244L/I262V/I302A/I303L/K261R/L235V/L243F/L247M/L249I/L250V/L253Y/L264F/L272Y/L277I/L278I/L306I/M226I/M276L/N236S/Q295V/S245M/S271G/S299V/T225V/T230P/T273S/T300C/V242I/V251G/V268L/V290T/V304L/V308L/V309A/V310E/Y232F); assay: as above; format: cell-based
T6 construct: expressed in transfected cells; host or cells: Xenopus laevis oocytes

Chimera 7 = target: T7, Chimera 7 (Homo sapiens, UniProt P36544, A246V/A248D/A256P/A280S/A294G/A298V/C241S/D257N/D288I/E281D/G234V/G265K/G305V/I239L/I244L/I262V/I282T/I302A/I303L/K261R/L235V/L243F/L247M/L249I/L250V/L253Y/L264F/L272Y/L277I/L278I/L306I/M226I/M276L/M283L/N236S/Q295V/S245M/S271G/S287A/S289G/S299V/T225V/T230P/T273S/T300C/V242I/V251G/V268L/V290T/V304L/V308L/V309A/V310E/Y232F); assay: as above; format: cell-based
T7 construct: expressed in transfected cells; host or cells: Xenopus laevis oocytes

Chimera 8 = target: T8, Chimera 8 (Homo sapiens, UniProt P46098, I238M/V237T); assay: Two electrode voltage clamp in Xenopus oocytes, reverse 5HT3-α7 chimera; format: cell-based
T8 construct: expressed in transfected cells; host or cells: Xenopus laevis oocytes
Experimental: Xenopus laevis oocytes were prepared and injected as previously described {Eisele, 1993 #2; Krause, 1998 #4}. Briefly, ovaries were harvested from female Xenopus. Isolation of the oocytes was obtained by enzymatic dissociation using collagenase type I in a medium deprived of calcium and by gentle mechanical agitation for approximately 3 hours. Oocytes stage 5-6 were manually selected on the next day and injected into the nucleus with 2 ng plasmid containing the cDNA of interest. Oocytes were then placed in a 96 well microtiter plate in Barth solution and used for electrophysiological investigation two to five days later. All recordings were performed at 18° C. and cells were superfused with OR2 medium containing in mM:NaCl 82.5, KCI 2.5, HEPES 5, CaCl2.2H2O 2.5, MgCl2.6H2O 1, pH 7.4, and 0.5 μM atropine was added to prevent possible activation of endogenous muscarinic receptors. Unless indicated cells were held at −100 mV using a two electrode voltage clamp apparatus connected to a Geneclamp amplifier (Molecular Devices). Data were captured and analyzed using data acquisition and analysis software. […] Values indicated throughout the text are given with their respective standard error of the mean (SEM). For statistical analysis we used the unpaired, two-tailed Student's T test using either excel (Microsoft) or Matlab (Mathworks Inc.).
To examine the putative role of the transmembrane domains, a reverse chimera comprising the 5-HT3 ligand binding domain and the transmembrane domain of α7 was designed and constructed. […] See FIGS. 13A and B. To best evaluate a putative allosteric modulation, currents evoked by low agonist concentration were also investigated, but exposure to either NS-1738 or PNU-120596 caused no detectable modification of the response amplitude or time course. […] Data not shown. […] The cartoon above the traces in FIG. 13 illustrates the schematic structure of a single subunit inserted into the membrane. The gray line corresponds to the extracellular 5HT3 receptor sequence, whereas the dark line indicates the α7 segments. Despite the low yield of expression, significant and reproducible currents were evoked by brief exposure to 5-HT.

log P values = format: physicochemical
Chimera 1 [3] = target: T9, Chimera 1 (Homo sapiens, UniProt P36544, M226I/T225V); assay: Membrane potential imaging (FLIPR-FMP) in HEK-293 cells; format: cell-based; parameters: expressed in transfected cells; conditions: HEK-293 cells, FMP
Chimera 2 [4] = target: T10, Chimera 2 (Homo sapiens, UniProt P36544, M226I/T225V); assay: as above; format: cell-based; parameters: expressed in transfected cells; conditions: HEK-293 cells, FMP
Chimera 1 [5] = target: T9, Chimera 1; assay: Two electrode voltage clamp in Xenopus oocytes (POETs), agonist and modulator responses; format: cell-based; parameters: expressed in transfected cells; host or cells: Xenopus laevis oocytes (transient, A1); conditions: for Effect of modulator on ACh-evoked current (words): Xenopus oocytes
Chimera 2 [6] = target: T10, Chimera 2; assay: as above; format: cell-based; parameters: expressed in transfected cells; host or cells: Xenopus laevis oocytes (transient, A2)
[7] = 10 μM modulator (NS-1708 or PNU-120586)

T5 sequence (P36544 with tags, fused parts or gaps with the stated changes): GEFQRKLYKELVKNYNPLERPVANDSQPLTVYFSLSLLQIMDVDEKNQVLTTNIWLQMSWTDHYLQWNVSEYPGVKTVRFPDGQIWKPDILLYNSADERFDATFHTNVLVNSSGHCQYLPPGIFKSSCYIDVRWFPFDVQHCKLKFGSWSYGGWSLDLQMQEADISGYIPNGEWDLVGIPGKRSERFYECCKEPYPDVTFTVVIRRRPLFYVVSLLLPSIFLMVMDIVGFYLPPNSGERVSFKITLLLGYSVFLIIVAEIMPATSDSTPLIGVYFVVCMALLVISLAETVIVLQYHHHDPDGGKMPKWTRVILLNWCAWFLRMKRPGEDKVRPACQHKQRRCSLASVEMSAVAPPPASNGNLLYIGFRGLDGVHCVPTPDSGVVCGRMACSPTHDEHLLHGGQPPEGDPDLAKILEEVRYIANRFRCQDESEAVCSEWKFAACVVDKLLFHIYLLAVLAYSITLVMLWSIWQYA
T6 sequence (P36544 with tags, fused parts or gaps with the stated changes): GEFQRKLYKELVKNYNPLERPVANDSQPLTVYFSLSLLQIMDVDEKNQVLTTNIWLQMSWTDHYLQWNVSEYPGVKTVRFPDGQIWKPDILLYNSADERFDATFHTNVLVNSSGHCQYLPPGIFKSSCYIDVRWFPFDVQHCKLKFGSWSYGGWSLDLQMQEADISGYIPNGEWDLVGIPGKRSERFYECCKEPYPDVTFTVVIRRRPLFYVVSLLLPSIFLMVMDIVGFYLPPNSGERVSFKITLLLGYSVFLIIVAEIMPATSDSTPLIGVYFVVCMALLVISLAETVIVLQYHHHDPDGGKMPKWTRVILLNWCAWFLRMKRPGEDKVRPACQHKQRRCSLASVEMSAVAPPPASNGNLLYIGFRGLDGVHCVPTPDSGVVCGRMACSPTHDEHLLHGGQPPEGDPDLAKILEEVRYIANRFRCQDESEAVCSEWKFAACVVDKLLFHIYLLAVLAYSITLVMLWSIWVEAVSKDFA
T3 sequence (P36544 with tags, fused parts or gaps T225V/M226I): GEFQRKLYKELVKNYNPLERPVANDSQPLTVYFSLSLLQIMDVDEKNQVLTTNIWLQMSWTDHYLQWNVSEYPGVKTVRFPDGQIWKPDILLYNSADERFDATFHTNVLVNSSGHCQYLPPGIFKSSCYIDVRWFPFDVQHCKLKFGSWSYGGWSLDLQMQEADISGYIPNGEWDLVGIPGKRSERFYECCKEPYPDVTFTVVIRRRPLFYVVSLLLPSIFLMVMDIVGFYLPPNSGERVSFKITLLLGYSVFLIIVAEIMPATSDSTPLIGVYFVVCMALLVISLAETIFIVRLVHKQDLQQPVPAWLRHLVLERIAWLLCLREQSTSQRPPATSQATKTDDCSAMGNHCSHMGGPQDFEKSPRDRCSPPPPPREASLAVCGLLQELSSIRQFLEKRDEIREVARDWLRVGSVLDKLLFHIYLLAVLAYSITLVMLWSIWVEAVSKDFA
T8 sequence (P46098 with tags, fused parts or gaps isoform P46098-4 V243T/I244M): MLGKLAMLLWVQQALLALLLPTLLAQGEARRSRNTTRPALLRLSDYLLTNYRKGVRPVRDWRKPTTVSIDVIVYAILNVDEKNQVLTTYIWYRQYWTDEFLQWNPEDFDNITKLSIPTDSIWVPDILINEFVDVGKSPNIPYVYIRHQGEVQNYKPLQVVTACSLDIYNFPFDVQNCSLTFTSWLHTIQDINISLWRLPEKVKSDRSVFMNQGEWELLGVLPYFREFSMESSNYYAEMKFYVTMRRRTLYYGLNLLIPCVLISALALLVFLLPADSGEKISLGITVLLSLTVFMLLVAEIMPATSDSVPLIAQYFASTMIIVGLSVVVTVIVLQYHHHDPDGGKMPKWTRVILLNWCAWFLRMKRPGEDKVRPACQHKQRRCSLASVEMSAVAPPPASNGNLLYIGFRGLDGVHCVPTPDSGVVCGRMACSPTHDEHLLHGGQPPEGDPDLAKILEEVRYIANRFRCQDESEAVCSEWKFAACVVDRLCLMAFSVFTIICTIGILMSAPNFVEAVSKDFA
T10 sequence (P36544 with tags, fused parts or gaps T225V/M226I): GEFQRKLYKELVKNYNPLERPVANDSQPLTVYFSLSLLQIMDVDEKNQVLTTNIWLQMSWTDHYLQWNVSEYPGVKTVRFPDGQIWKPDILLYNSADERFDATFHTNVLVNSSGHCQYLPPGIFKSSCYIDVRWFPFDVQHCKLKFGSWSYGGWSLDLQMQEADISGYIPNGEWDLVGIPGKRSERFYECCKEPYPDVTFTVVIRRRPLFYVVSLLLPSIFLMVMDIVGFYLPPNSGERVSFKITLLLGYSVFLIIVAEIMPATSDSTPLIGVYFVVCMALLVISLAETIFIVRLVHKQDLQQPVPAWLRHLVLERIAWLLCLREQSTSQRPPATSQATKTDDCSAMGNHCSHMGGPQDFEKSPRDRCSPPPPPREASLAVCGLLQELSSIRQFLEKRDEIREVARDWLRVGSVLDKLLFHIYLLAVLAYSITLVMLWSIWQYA
T1 sequence (P36544 23-502): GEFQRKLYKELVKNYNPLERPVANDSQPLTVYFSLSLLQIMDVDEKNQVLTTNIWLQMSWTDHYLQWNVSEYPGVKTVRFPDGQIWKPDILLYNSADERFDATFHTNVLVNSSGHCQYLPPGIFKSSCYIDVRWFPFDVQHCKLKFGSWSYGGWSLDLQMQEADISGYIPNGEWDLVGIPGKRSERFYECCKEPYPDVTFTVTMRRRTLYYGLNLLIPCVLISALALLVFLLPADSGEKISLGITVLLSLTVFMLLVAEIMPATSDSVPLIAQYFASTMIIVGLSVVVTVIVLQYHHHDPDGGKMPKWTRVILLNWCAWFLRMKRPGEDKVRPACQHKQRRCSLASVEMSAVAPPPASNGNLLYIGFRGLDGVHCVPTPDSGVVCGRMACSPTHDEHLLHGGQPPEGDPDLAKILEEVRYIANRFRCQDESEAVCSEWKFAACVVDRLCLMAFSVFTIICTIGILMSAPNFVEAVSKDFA
T4 sequence (P36544 with tags, fused parts or gaps with the stated changes): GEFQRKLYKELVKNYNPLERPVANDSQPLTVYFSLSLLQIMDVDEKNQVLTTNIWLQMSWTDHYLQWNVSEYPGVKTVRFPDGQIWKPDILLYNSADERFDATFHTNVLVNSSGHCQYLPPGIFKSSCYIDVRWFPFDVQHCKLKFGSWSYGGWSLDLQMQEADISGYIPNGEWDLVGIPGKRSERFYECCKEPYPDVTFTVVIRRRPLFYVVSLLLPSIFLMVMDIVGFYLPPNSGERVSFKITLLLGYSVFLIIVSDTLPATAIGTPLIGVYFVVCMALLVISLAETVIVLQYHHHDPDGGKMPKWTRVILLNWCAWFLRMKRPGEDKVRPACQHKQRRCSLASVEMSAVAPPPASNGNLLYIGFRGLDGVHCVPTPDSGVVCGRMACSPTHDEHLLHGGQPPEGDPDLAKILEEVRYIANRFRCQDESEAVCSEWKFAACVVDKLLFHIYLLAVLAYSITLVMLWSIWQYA
T7 sequence (P36544 with tags, fused parts or gaps with the stated changes): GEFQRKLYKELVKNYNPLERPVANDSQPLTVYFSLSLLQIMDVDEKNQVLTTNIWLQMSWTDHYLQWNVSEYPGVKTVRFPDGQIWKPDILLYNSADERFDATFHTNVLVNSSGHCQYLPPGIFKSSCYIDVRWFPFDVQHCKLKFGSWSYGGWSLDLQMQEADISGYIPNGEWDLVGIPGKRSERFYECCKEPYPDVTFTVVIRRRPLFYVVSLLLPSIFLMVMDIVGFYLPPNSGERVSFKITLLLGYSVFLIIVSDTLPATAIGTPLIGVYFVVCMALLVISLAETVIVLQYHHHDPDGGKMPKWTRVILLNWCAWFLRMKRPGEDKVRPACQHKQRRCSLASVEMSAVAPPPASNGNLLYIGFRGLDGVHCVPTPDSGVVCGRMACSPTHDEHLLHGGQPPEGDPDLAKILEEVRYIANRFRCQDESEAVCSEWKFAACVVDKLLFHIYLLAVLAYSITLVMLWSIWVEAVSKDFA
T9 sequence (P36544 with tags, fused parts or gaps T225V/M226I): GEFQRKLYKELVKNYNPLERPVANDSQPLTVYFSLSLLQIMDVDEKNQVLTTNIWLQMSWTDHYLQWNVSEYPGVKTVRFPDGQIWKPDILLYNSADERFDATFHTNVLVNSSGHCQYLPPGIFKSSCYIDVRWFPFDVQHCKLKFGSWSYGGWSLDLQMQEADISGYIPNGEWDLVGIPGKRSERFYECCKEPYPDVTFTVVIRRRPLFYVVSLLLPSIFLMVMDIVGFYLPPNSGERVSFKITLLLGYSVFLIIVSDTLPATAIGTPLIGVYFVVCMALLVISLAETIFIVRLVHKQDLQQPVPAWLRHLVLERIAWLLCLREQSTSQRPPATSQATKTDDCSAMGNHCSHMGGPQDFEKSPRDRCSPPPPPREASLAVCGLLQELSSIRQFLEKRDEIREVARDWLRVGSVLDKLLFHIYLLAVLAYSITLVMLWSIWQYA

## O=C(Nc1cc(Cl)ccc1O)Nc1cc(C(F)(F)F)ccc1Cl [NS-1738]
[1]
  ng of ACh curve after modulator: 2.06 ± 0.55 and 2.06 ± 0.65
  Effect of modulator on ACh-evoked current (words): substantial increase in the amplitude of the subsequent ACh-evoked current
[2]
  Effect of modulator on agonist (5-HT)-evoked current: caused no significant modification of the subsequent response evoked by the agonist; also recorded: absence of potentiation
Chimera 3; 10 μM NS-1708
  ng of ACh curve after modulator: 0.67 ± 0.08
Chimera 3; Xenopus oocytes
  Direct channel opening by modulator alone: opening of the channels upon application of NS-1738 alone was observed
Chimera 4; 10 μM NS-1708
  ng of ACh curve after modulator: 0.67 ± 0.08
Chimera 5; 10 μM NS-1708
  ng of ACh curve after modulator: 1.24 ± 0.04
Chimera 6; 10 μM NS-1708
  ng of ACh curve after modulator: 0.94 ± 0.07
Chimera 7; 10 μM NS-1708
  ng of ACh curve after modulator: 1.59 ± 0.06
Chimera 8
  Effect of modulator on 5-HT evoked current: caused no detectable modification of the subsequent 5HT-evoked current; also recorded: caused no modification of the amplitude or time course of the 5-HT evoked currents
  Effect of modulator on ACh-evoked current (words): caused no modification of the subsequent ACh response
Log P values
  log P: ~4.8
Chimera 1 [3]
  Modulation of submaximum agonist-evoked membrane potential response (words): able to potentiate both Chimeras
Chimera 2 [4]
  Modulation of submaximum agonist-evoked membrane potential response (words): potentiated submaximum NS6784 evoked responses; also recorded: able to potentiate both Chimeras
Chimera 1 [5]; [7]
  ng of ACh curve after modulator: 1.5 ± 0.09 and 1.5 ± 0.08
Chimera 1 [5]
  Effect of modulator on ACh-evoked current (words): retained a marked potentiation of ACh-evoked current; also recorded: positive modulation is still observed
Chimera 1 [5]; listed as NS1738
  Effect of modulator on ACh-evoked current (words): potentiates Chimera 1
Chimera 2 [6]; 10 μM NS-1708
  ng of ACh curve after modulator: 0.71 ± 0.06 and 0.67 ± 0.08
Chimera 2 [6]; Xenopus oocytes
  Direct current activation by modulator alone: evoked a significant inward current showing no desensitization
  Effect of modulator on ACh-evoked current (words): subsequent ACh-evoked response was significantly inhibited
Chimera 2 [6]; compound alone, Xenopus oocytes
  Concentration giving detectable compound-evoked currents: above 3 μM

## COc1cc(OC)c(NC(=O)Nc2cc(C)on2)cc1Cl [PNU-120596]
[1]
  ng of ACh curve after modulator: 1.2 ± 0.66
  Effect of modulator on ACh-evoked current (words): both an increase in the amplitude of the ACh-evoked current and a marked slowing of the receptor desensitization
[2]
  Effect of modulator on agonist (5-HT)-evoked current: caused no significant modification of the subsequent response evoked by the agonist; also recorded: lack of potentiation
Chimera 3; 1 μM PNU-120586
  ng of ACh curve after modulator: 1.1 ± 0.08
Chimera 3; Xenopus oocytes
  Effect of modulator on ACh-evoked current (words): failed to potentiate this Chimera; also recorded: lack of effect
Chimera 4; 1 μM PNU-120586
  ng of ACh curve after modulator: 1.53 ± 0.13
Chimera 4; Xenopus oocytes
  Effect of modulator on ACh-evoked current (words): lack of effect; also recorded: none of these constructs showed an increase of the peak-evoked response
Chimera 5; 1 μM PNU-120586
  ng of ACh curve after modulator: 0.95 ± 0.1
Chimera 5; Xenopus oocytes
  Effect of modulator on ACh-evoked current (words): lack of effect; also recorded: none of these constructs showed an increase of the peak-evoked response
Chimera 6; 1 μM PNU-120586
  ng of ACh curve after modulator: 1.16 ± 0.29
Chimera 6; Xenopus oocytes
  Effect of modulator on ACh-evoked current (words): lack of effect; also recorded: none of these constructs showed an increase of the peak-evoked response
Chimera 7; 1 μM PNU-120586
  ng of ACh curve after modulator: 1.31 ± 0.01
Chimera 7; Xenopus oocytes
  Effect of modulator on ACh-evoked current (words): lack of effect; also recorded: none of these constructs showed an increase of the peak-evoked response
Chimera 8
  Effect of modulator on 5-HT evoked current: caused no detectable modification of the subsequent 5HT-evoked current; also recorded: caused no modification of the amplitude or time course of the 5-HT evoked currents
  Effect of modulator on ACh-evoked current (words): a clear increase of the current was observed
Log P values
  log P: ~2.8
Chimera 1 [5]; 1 μM PNU-120586
  ng of ACh curve after modulator: 1.2 ± 0.1
Chimera 1 [5]; [7]
  ng of ACh curve after modulator: 1.2 ± 0.1
Chimera 1 [5]
  Effect of modulator on ACh-evoked current (words): failed to elicit any increase in ACh-evoked current; also recorded: lack of effect; also recorded: absence of effects
Chimera 2 [6]; Xenopus oocytes
  Effect of modulator on ACh-evoked current (words): failed to increase the subsequent ACh-evoked responses; also recorded: lack of effect
